Measured values as given in the supplement of paper PMC10307832.

Tests used:
Assay in all cases: relative viability (nuclei count vs DMSO), 5 days (fraction); higher = more cells survive
GSK-J4 + Luminespib = compound: CCOC(=O)CCNc1cc(N2CCc3ccccc3CC2)nc(-c2ccccn2)n1 [GSK-J4] + CCNC(=O)c1noc(-c2cc(C(C)C)c(O)cc2O)c1-c1ccc(CN2CCOCC2)cc1 [Luminespib] (partner 0.01 µM)
Outline: (§1)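 Lung cancer cell lines were seeded in 1536-well plates and dosed by pin tool the next day, with either a single drug or a fixed anchor-drug dose combined with five library-drug doses (not always all listed) spaced in √10 steps. Five days later, one step fixed the cells and stained their nuclei (final 0.05% Triton X-100, 1% formaldehyde, 1 ug/ml Hoechst), and nuclei were counted on 4× images. Relative viability is the nuclei count in treated wells divided by the count in vehicle wells, and each value is the median of duplicate plates.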

GSK-J4 + Crizotinib = compound: CCOC(=O)CCNc1cc(N2CCc3ccccc3CC2)nc(-c2ccccn2)n1 [GSK-J4] + C[C@@H](Oc1cc(-c2cnn(C3CCNCC3)c2)cnc1N)c1c(Cl)ccc(F)c1Cl [Crizotinib] (partner 1 µM)
Outline: as §1

GSK-J4 + Pemetrexed = compound: CCOC(=O)CCNc1cc(N2CCc3ccccc3CC2)nc(-c2ccccn2)n1 [GSK-J4] + Nc1nc2[nH]cc(CCc3ccc(C(=O)N[C@@H](CCC(=O)O)C(=O)O)cc3)c2c(=O)[nH]1 [Pemetrexed] (partner 0.2 µM)
Outline: as §1

AZ3146 + OSI-027 = compound: CN1CCC(CC1)OC2=CC(=C(C=C2)NC3=NC=C4C(=N3)N(C(=O)N4C)C5CCCC5)OC [AZ3146] + COc1cccc2cc(-c3nc([C@H]4CC[C@H](C(=O)O)CC4)n4ncnc(N)c34)[nH]c12 [OSI-027] (partner 0.5 µM)
Outline: as §1

| Cell Line | relative viability (GSK-J4 + Luminespib; first compound 0.5 µM) | relative viability (GSK-J4 + Luminespib; first compound 1.581 µM) | relative viability (GSK-J4 + Luminespib; first compound 5 µM) | relative viability (GSK-J4 + Luminespib; first compound 15.81 µM) | relative viability (GSK-J4 + Luminespib; first compound 50 µM) | relative viability (GSK-J4 + Crizotinib; first compound 0.5 µM) | relative viability (GSK-J4 + Crizotinib; first compound 1.581 µM) | relative viability (GSK-J4 + Crizotinib; first compound 5 µM) | relative viability (GSK-J4 + Crizotinib; first compound 15.81 µM) | relative viability (GSK-J4 + Crizotinib; first compound 50 µM) | relative viability (GSK-J4 + Pemetrexed; first compound 0.5 µM) | relative viability (GSK-J4 + Pemetrexed; first compound 1.581 µM) | relative viability (GSK-J4 + Pemetrexed; first compound 5 µM) | relative viability (GSK-J4 + Pemetrexed; first compound 15.81 µM) | relative viability (GSK-J4 + Pemetrexed; first compound 50 µM) | relative viability (AZ3146 + OSI-027; first compound 0.08 µM) | relative viability (AZ3146 + OSI-027; first compound 0.253 µM) | relative viability (AZ3146 + OSI-027; first compound 0.8 µM) | relative viability (AZ3146 + OSI-027; first compound 2.53 µM) | relative viability (AZ3146 + OSI-027; first compound 8 µM) |
| --- | --- | --- | --- | --- | --- | --- | --- | --- | --- | --- | --- | --- | --- | --- | --- | --- | --- | --- | --- | --- |
| NCI-H661 | 0.911 | 0.902 | 0.929 | 0.904 | 0.6 | 0.873 | 0.969 | 1.04 | 0.913 | 0.814 | 0.908 | 0.827 | 0.883 | 0.883 | 0.788 | 0.74 | 0.72 | 0.768 | 0.764 | 0.576 |
| NCI-H838 | 0.299 | 0.335 |  | 0.247 | 0.168 | 0.85 | 0.845 |  | 0.816 | 0.752 | 0.242 | 0.219 | 0.218 | 0.248 | 0.199 | 0.38 | 0.432 | 0.341 | 0.325 | 0.373 |
| NCI-H1355 | 0.691 | 0.701 | 0.77 | 0.513 | 0.651 | 1.06 | 0.962 | 1.22 | 1.02 | 1.04 | 0.988 | 0.975 | 0.889 | 0.858 | 0.992 | 0.396 | 0.395 | 0.324 | 0.441 | 0.345 |
| NCI-H1437 | 1.05 | 1.1 | 1.1 | 1.03 | 0.739 | 0.76 | 0.917 | 0.924 | 0.897 | 0.436 | 0.298 | 0.317 | 0.3 | 0.297 | 0.262 | 0.813 | 0.876 | 0.821 | 0.875 | 0.995 |
| NCI-H1563 | 0.513 | 0.484 | 0.477 | 0.502 | 0.526 | 0.888 | 0.779 | 0.684 | 0.837 | 0.857 | 0.738 | 1.26 | 0.717 | 0.698 | 0.76 | 0.684 | 0.731 | 0.765 | 0.746 | 0.696 |
| NCI-H1650 | 0.17 | 0.222 | 0.228 | 0.153 | 0.231 | 0.847 | 0.962 | 0.862 | 0.935 | 0.721 | 0.439 | 0.303 | 0.392 | 0.36 | 0.331 | 0.474 | 0.622 | 0.515 | 0.607 | 0.395 |
| NCI-H1651 | 0.703 | 0.728 | 0.727 | 0.701 | 0.625 | 0.854 | 0.737 | 0.92 | 0.817 | 0.85 | 0.587 | 0.597 | 0.595 | 0.518 | 0.56 | 0.657 | 0.745 | 0.66 | 0.692 | 0.639 |
| NCI-H1666 | 1.02 | 0.925 | 1.11 | 1.03 | 0.735 | 0.925 |  | 1.01 | 0.882 | 0.462 | 0.864 | 0.665 | 0.765 | 0.882 | 0.791 | 0.866 | 0.881 | 0.922 | 0.806 | 0.839 |
